Drawing on patent US7977387B2, “Aminobenzophenone compounds” (Leo Pharma A/S, priority 2003, dated 2011), this text covers IC50 for 13 molecules.

In experiment [1] the test system is IL-1β. The experiment is described as follows: Inhibition of IL-1β secretion in LPS stimulated peripheral blood mononuclear cells. As to conditions: PBMC; LPS stimulated human peripheral blood mononuclear cells, 18 hours, ELISA; read-out: The median inhibition concentration (IC50, nM) of IL-1β. Format: cell-based. On the procedure: (§1) To study the effect of compounds of the present invention in vitro, the inhibition of IL-1β and TNF-α secretion was determined using the following procedure:
(§2) Cytokine production was measured in the media from lipopolysaccharide (LPS) stimulated peripheral blood mononuclear cells. The mononuclear cells were isolated from human peripheral blood by Lymphoprep® (Nycomed, Norway) fractionation and suspended in RPMI 1640 (growth medium) with foetal calf serum (FCS, 2%), at a concentration of 5×10^5 cells/ml. The cells were incubated in 24-well tissue culture plates in 1 ml aliquots. Test compounds were dissolved in dimethylsulfoxide (DMSO, 10 mM) and were diluted with the medium. Compounds were added to the cells for 30 minutes, then LPS ([…] final concentration) was added. The plates were incubated for 18 hours, and the concentration of IL-β and TNF-α in the medium was determined by enzyme-linked immunosorbent assays. The median inhibitory concentrations (IC50) of the compounds were calculated.

In experiment [2] the test system is TNF-α. The experiment is described as follows: Inhibition of TNF-α secretion in LPS stimulated peripheral blood mononuclear cells. Format: cell-based. As to conditions: PBMC; LPS stimulated human peripheral blood mononuclear cells, 18 hours, ELISA; read-out: The median inhibition concentration (IC50, nM) of TNF-α. On the procedure: as §1, §2

As to `Cc1ccc(C(=O)NCCO)cc1C(=O)c1ccc(Nc2ccc(F)cc2)cc1Cl` [Compound 190, 3-[2-Chloro-4-(4-fluoro-phenylamino)-benzoyl]-N-(2-hydroxy-ethyl)-4-methyl-benzamide], the IC50 in experiment [1] turned out to be 0.6 nM; in experiment [2], 0.3 nM.
Turning to `Cc1ccc(C(=O)NCCO)cc1C(=O)c1ccc(Nc2ccccc2)cc1Cl` [Compound 191, 3-(2-Chloro-4-phenylamino-benzoyl)-N-(2-hydroxy-ethyl)-4-methyl-benzamide], the IC50 in experiment [1] came to 1.1 nM; in experiment [2] it was 0.5 nM.
Take `Cc1ccc(C(=O)NCCO)cc1C(=O)c1ccc(Nc2cccc(F)c2)cc1Cl` [Compound 193, 3-[2-Chloro-4-(3-fluoro-phenylamino)-benzoyl]-N-(2-hydroxy-ethyl)-4-methyl-benzamide]: the IC50 in experiment [1] stood at 4 nM; in experiment [2], 2.5 nM.
For the molecule `COc1ccc(C(=O)NCCO)cc1C(=O)c1ccc(Nc2ccc(F)cc2)cc1Cl` [Compound 194, 3-[2-Chloro-4-(4-fluoro-phenylamino)-benzoyl]-N-(2-hydroxy-ethyl)-4-methoxy-benzamide], the IC50 was determined as 0.6 nM in experiment [1] and 0.3 nM in experiment [2].
As for `COc1ccc(C(=O)NCCO)cc1C(=O)c1ccc(Nc2ccccc2)cc1Cl` [Compound 195, 3-(2-Chloro-4-phenylamino-benzoyl)-N-(2-hydroxy-ethyl)-4-methoxy-benzamide], the IC50 in experiment [1] was 2.2 nM; in experiment [2], 1 nM.
For the molecule `COc1ccc(C(=O)NCCF)cc1C(=O)c1ccc(Nc2ccc(F)cc2)cc1Cl` [Compound 197, 3-[2-Chloro-4-(4-fluoro-phenylamino)-benzoyl]-N-(2-fluoro-ethyl)-4-methoxy-benzamide], the IC50 in experiment [1] worked out at 3.2 nM; in experiment [2], 1.8 nM.
`COc1ccc(C(=O)NCCF)cc1C(=O)c1ccc(Nc2ccccc2)cc1Cl` [Compound 201, 3-(2-Chloro-4-phenylamino-benzoyl)-N-(2-fluoro-ethyl)-4-methoxy-benzamide]: the figures for the IC50 in experiment [1] and in experiment [2] were 7.9 nM and 3.2 nM, respectively.
In the case of `COc1ccc(C(=O)NCC(N)=O)cc1C(=O)c1ccc(Nc2ccccc2)cc1Cl` [Compound 203, N-Carbamoylmethyl-3-(2-chloro-4-phenylamino-benzoyl)-4-methoxy-benzamide], the IC50 worked out at 6.3 nM in experiment [1] and 3.2 nM in experiment [2].
The like results for `COCCC(=O)Nc1ccc(C)c(C(=O)c2ccc(Nc3ccc(F)cc3F)cc2Cl)c1` [Compound 241, N-{3-[2-Chloro-4-(2,4-difluoro-phenylamino)-benzoyl]-4-methyl-phenyl}-3-methoxy-propionamide] were, in that order, 1.1 nM and 0.3 nM.
The like results for `CCC(=O)Nc1ccc(C)c(C(=O)c2ccc(Nc3ccc(F)cc3F)cc2Cl)c1` [Compound 242, N-{3-[2-Chloro-4-(2,4-difluoro-phenylamino)-benzoyl]-4-methyl-phenyl}-propionamide] were, in that order, 1.4 nM and 0.5 nM.
Take `COCCOCC(=O)Nc1ccc(C)c(C(=O)c2ccc(Nc3ccc(F)cc3F)cc2Cl)c1` [Compound 243, N-{3-[2-Chloro-4-(2,4-difluoro-phenylamino)-benzoyl]-4-methyl-phenyl}-2-(2-methoxy-ethoxy)-acetamide]: the IC50 in experiment [1] was 2.8 nM; in experiment [2] it was 1.3 nM.
On to `Cc1ccc(NC(=O)CCN2CCOCC2)cc1C(=O)c1ccc(Nc2ccc(F)cc2F)cc1Cl` [Compound 244, N-{3-[2-Chloro-4-(2,4-difluoro-phenylamino)-benzoyl]-4-methyl-phenyl}-3-morpholin-4-yl-propionamide], for which the IC50 stood at 1.3 nM in experiment [1] and 0.5 nM in experiment [2].
As to `Cc1ccc(NC(=O)CCO)cc1C(=O)c1ccc(Nc2ccc(F)cc2F)cc1Cl` [Compound 245, N-{3-[2-Chloro-4-(2,4-difluoro-phenylamino)-benzoyl]-4-methyl-phenyl}-3-hydroxy-propionamide], the values for the IC50 in experiment [1] and in experiment [2] were 3.5 nM and 0.9 nM, respectively.
